PubChem BioAssay (NCI)
Values joined by “and” are separate entries in the source; they are usually repeats but may differ in a detail not shown here. Equal values may be shown once.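 Following 48 hours of exposure in 96-well plates, responses at five concentrations were used to interpolate endpoints linearly. The concentration for 50% growth inhibition is given as GI50. TGI marks complete inhibition of growth.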

How the values were obtained:
Assay in all cases: NCI tumour cell line growth inhibition, 48 h
HL-60(TB) leukemia = system: HL-60(TB) leukemia
HOP-92 NSCLC = system: HOP-92 NSCLC
HCT-15 colon = system: HCT-15 colon
M19-MEL melanoma = system: M19-MEL melanoma
UACC-257 melanoma = system: UACC-257 melanoma
SN12K1 renal = system: SN12K1 renal
SN12C renal = system: SN12C renal
EKVX NSCLC = system: EKVX NSCLC
SNB-78 CNS = system: SNB-78 CNS
SNB-19 CNS = system: SNB-19 CNS
A498 renal = system: A498 renal
OVCAR-8 ovarian = system: OVCAR-8 ovarian
OVCAR-3 ovarian = system: OVCAR-3 ovarian
OVCAR-4 ovarian = system: OVCAR-4 ovarian
SK-MEL-2 melanoma = system: SK-MEL-2 melanoma
A549 NSCLC = system: A549 NSCLC
HT29 colon = system: HT29 colon
NCI-H522 lung = system: NCI-H522 lung
SW-620 colon = system: SW-620 colon
K-562 leukemia = system: K-562 leukemia
SNB-75 CNS = system: SNB-75 CNS
HCC-2998 colon = system: HCC-2998 colon
DMS 273 small cell lung = system: DMS 273 small cell lung
NCI-H460 lung = system: NCI-H460 lung
SK-MEL-5 melanoma = system: SK-MEL-5 melanoma
HCT-116 colon = system: HCT-116 colon
SF-295 CNS = system: SF-295 CNS
UO-31 renal = system: UO-31 renal
OVCAR-5 ovarian = system: OVCAR-5 ovarian
IGROV1 ovarian = system: IGROV1 ovarian
MOLT-4 leukemia = system: MOLT-4 leukemia
SK-OV-3 ovarian = system: SK-OV-3 ovarian
HOP-62 NSCLC = system: HOP-62 NSCLC
HOP-18 NSCLC = system: HOP-18 NSCLC
MALME-3M melanoma = system: MALME-3M melanoma
NCI-H23 lung = system: NCI-H23 lung
KM20L2 colon = system: KM20L2 colon
XF 498 CNS = system: XF 498 CNS
COLO 205 colon = system: COLO 205 colon
NCI-H226 lung = system: NCI-H226 lung
UACC-62 melanoma = system: UACC-62 melanoma
NCI/ADR-RES ovarian = system: NCI/ADR-RES ovarian
SF-268 CNS = system: SF-268 CNS
U251 CNS = system: U251 CNS
LOX IMVI melanoma = system: LOX IMVI melanoma
CCRF-CEM leukemia = system: CCRF-CEM leukemia
DMS 114 small cell lung = system: DMS 114 small cell lung
P388/ADR leukemia = system: P388/ADR leukemia
KM12 colon = system: KM12 colon
RPMI-8226 leukemia = system: RPMI-8226 leukemia
SF-539 CNS = system: SF-539 CNS
MCF7 breast = system: MCF7 breast
CAKI-1 renal = system: CAKI-1 renal
DLD-1 colon = system: DLD-1 colon
RXF 393 renal = system: RXF 393 renal
SK-MEL-28 melanoma = system: SK-MEL-28 melanoma
P388 leukemia = system: P388 leukemia
MDA-MB-435 = system: MDA-MB-435
MDA-N = system: MDA-N
HS 578T breast = system: HS 578T breast
M14 melanoma = system: M14 melanoma
MDA-MB-231 breast = system: MDA-MB-231 breast

Structure (SMILES): CC1[C@@H]2CC=C3C4CCC5Cc6nc7c(nc6C[C@@]5(C)C4CC(=O)[C@]32CO[C@@]1(O)C(O)CC(C)(C)O)CC1CCC2C3=C[C@H]4O[C@@]5(O[C@@](C)(CO)C[C@@H]5O)C(C)[C@@]4(O)[C@]3(C)[C@@H](O)CC2[C@]1(C)C7 (stereo partly specified)
- TGI (HL-60(TB) leukemia): 0.0581 µM
- TGI (HOP-92 NSCLC): 1.12 µM
- TGI (HCT-15 colon): 0.33 µM
- TGI (M19-MEL melanoma): 0.729 µM
- TGI (UACC-257 melanoma): 0.112 µM
- TGI (SN12K1 renal): 0.406 µM
- TGI (SN12C renal): 2.9 µM
- TGI (EKVX NSCLC): 0.0479 µM
- TGI (SNB-78 CNS): 0.483 µM
- TGI (SNB-19 CNS): 0.329 µM
- TGI (A498 renal): 0.0112 µM
- TGI (OVCAR-8 ovarian): 3.6 µM
- TGI (OVCAR-3 ovarian): 2.36 µM
- TGI (OVCAR-4 ovarian): 1.29 µM
- TGI (SK-MEL-2 melanoma): 0.0891 µM
- TGI (A549 NSCLC): 0.383 µM
- TGI (HT29 colon): 0.0484 µM
- TGI (NCI-H522 lung): 0.124 µM
- TGI (SW-620 colon): 0.0564 µM
- TGI (K-562 leukemia): 0.434 µM
- TGI (SNB-75 CNS): 0.00313 µM
- TGI (HCC-2998 colon): 0.832 µM
- TGI (DMS 273 small cell lung): 0.00174 µM
- TGI (NCI-H460 lung): 0.0364 µM
- TGI (SK-MEL-5 melanoma): 0.0469 µM
- TGI (HCT-116 colon): 0.501 µM
- TGI (SF-295 CNS): 0.000713 µM
- TGI (UO-31 renal): 0.0836 µM
- TGI (OVCAR-5 ovarian): 0.0628 µM
- TGI (IGROV1 ovarian): 0.736 µM
- TGI (MOLT-4 leukemia): 0.376 µM
- TGI (SK-OV-3 ovarian): 0.0279 µM
- TGI (HOP-62 NSCLC): 0.00248 µM
- TGI (HOP-18 NSCLC): 0.739 µM
- TGI (MALME-3M melanoma): 0.0911 µM
- TGI (NCI-H23 lung): 0.0272 µM
- TGI (KM20L2 colon): 0.137 µM
- TGI (XF 498 CNS): 0.0502 µM
- TGI (COLO 205 colon): 0.0608 µM
- TGI (NCI-H226 lung): 0.376 µM
- TGI (UACC-62 melanoma): 0.0108 µM
- TGI (NCI/ADR-RES ovarian): 2.74 µM
- TGI (SF-268 CNS): 0.124 µM
- TGI (U251 CNS): 0.0345 µM
- TGI (LOX IMVI melanoma): 0.0914 µM
- TGI (CCRF-CEM leukemia): 0.0294 µM
- TGI (DMS 114 small cell lung): 0.0471 µM
- TGI (P388/ADR leukemia): 0.0891 µM
- TGI (KM12 colon): 0.571 µM
- TGI (RPMI-8226 leukemia): 0.045 µM
- TGI (SF-539 CNS): 0.0423 µM
- TGI (MCF7 breast): 0.192 µM
- TGI (CAKI-1 renal): 0.417 µM
- TGI (DLD-1 colon): 1.15 µM

Structure (SMILES): O=c1cc(O)ccn1C1C=C(CO)C(O)C1O (stereo unspecified)
- TGI (HL-60(TB) leukemia): > 625 µM
- TGI (HOP-92 NSCLC): > 625 µM
- TGI (HCT-15 colon): > 625 µM
- TGI (SN12K1 renal): > 625 µM
- TGI (SN12C renal): > 625 µM
- TGI (SNB-78 CNS): > 625 µM
- TGI (SNB-19 CNS): > 625 µM
- TGI (OVCAR-8 ovarian): > 625 µM
- TGI (OVCAR-3 ovarian): > 625 µM
- TGI (OVCAR-4 ovarian): > 625 µM
- TGI (SK-MEL-2 melanoma): > 625 µM
- TGI (A549 NSCLC): > 625 µM
- TGI (HT29 colon): > 625 µM
- TGI (SW-620 colon): > 625 µM
- TGI (SNB-75 CNS): > 625 µM
- TGI (HCC-2998 colon): > 625 µM
- TGI (DMS 273 small cell lung): > 625 µM
- TGI (NCI-H460 lung): > 625 µM
- TGI (SK-MEL-5 melanoma): > 625 µM
- TGI (RXF 393 renal): > 625 µM
- TGI (HCT-116 colon): > 625 µM
- TGI (SF-295 CNS): > 625 µM
- TGI (UO-31 renal): > 625 µM
- TGI (IGROV1 ovarian): > 625 µM
- TGI (SK-OV-3 ovarian): > 625 µM
- TGI (HOP-62 NSCLC): > 625 µM
- TGI (HOP-18 NSCLC): > 625 µM
- TGI (MALME-3M melanoma): > 625 µM
- TGI (SK-MEL-28 melanoma): > 625 µM
- TGI (KM20L2 colon): > 625 µM
- TGI (XF 498 CNS): < 0.0625 µM
- TGI (NCI-H226 lung): > 625 µM
- TGI (UACC-62 melanoma): > 625 µM
- TGI (NCI/ADR-RES ovarian): > 625 µM
- TGI (SF-268 CNS): > 625 µM
- TGI (U251 CNS): > 625 µM
- TGI (LOX IMVI melanoma): > 625 µM
- TGI (CCRF-CEM leukemia): > 625 µM
- TGI (DMS 114 small cell lung): > 625 µM
- TGI (KM12 colon): > 625 µM
- TGI (RPMI-8226 leukemia): > 625 µM
- TGI (SF-539 CNS): > 625 µM
- TGI (MCF7 breast): > 625 µM
- TGI (CAKI-1 renal): > 625 µM
- TGI (DLD-1 colon): > 625 µM

Structure (SMILES): O=C1c2ccccc2OCC1/C=N/O (stereo unspecified)
- TGI (HL-60(TB) leukemia): > 100 µM
- TGI (HOP-92 NSCLC): > 96 µM
- TGI (HCT-15 colon): > 100 µM
- TGI (M19-MEL melanoma): > 100 µM
- TGI (UACC-257 melanoma): > 100 µM
- TGI (SN12K1 renal): > 100 µM
- TGI (SN12C renal): > 100 µM
- TGI (EKVX NSCLC): > 100 µM
- TGI (SNB-78 CNS): > 100 µM
- TGI (A498 renal): > 100 µM
- TGI (OVCAR-8 ovarian): > 100 µM
- TGI (OVCAR-3 ovarian): > 100 µM
- TGI (OVCAR-4 ovarian): > 100 µM
- TGI (SK-MEL-2 melanoma): > 100 µM
- TGI (A549 NSCLC): > 100 µM
- TGI (HT29 colon): > 100 µM
- TGI (NCI-H522 lung): 62.1 µM
- TGI (SW-620 colon): > 100 µM
- TGI (K-562 leukemia): > 100 µM
- TGI (SNB-75 CNS): > 100 µM
- TGI (HCC-2998 colon): > 100 µM
- TGI (DMS 273 small cell lung): > 100 µM
- TGI (NCI-H460 lung): > 100 µM
- TGI (SK-MEL-5 melanoma): > 100 µM
- TGI (RXF 393 renal): 76.4 µM
- TGI (HCT-116 colon): > 100 µM
- TGI (P388 leukemia): > 63.7 µM
- TGI (SF-295 CNS): > 100 µM
- TGI (UO-31 renal): > 100 µM
- TGI (OVCAR-5 ovarian): > 100 µM
- TGI (IGROV1 ovarian): > 100 µM
- TGI (MOLT-4 leukemia): > 100 µM
- TGI (SK-OV-3 ovarian): > 100 µM
- TGI (HOP-62 NSCLC): > 100 µM
- TGI (HOP-18 NSCLC): > 100 µM
- TGI (MALME-3M melanoma): > 100 µM
- TGI (NCI-H23 lung): > 100 µM
- TGI (SK-MEL-28 melanoma): > 100 µM
- TGI (XF 498 CNS): > 100 µM
- TGI (NCI-H226 lung): > 100 µM
- TGI (UACC-62 melanoma): > 100 µM
- TGI (NCI/ADR-RES ovarian): > 100 µM
- TGI (SF-268 CNS): > 100 µM
- TGI (U251 CNS): > 100 µM
- TGI (LOX IMVI melanoma): > 100 µM
- TGI (CCRF-CEM leukemia): > 100 µM
- TGI (DMS 114 small cell lung): 98.9 µM
- TGI (KM12 colon): > 100 µM
- TGI (RPMI-8226 leukemia): > 100 µM
- TGI (SF-539 CNS): > 100 µM
- TGI (MCF7 breast): > 100 µM
- TGI (DLD-1 colon): > 100 µM

Structure (SMILES): CO[C@H]1C[C@@H]2CC[C@@H](C)[C@@](O)(O2)C(=O)C(=O)N2CCCC[C@H]2C(=O)O[C@H]([C@H](C)C[C@@H]2CC[C@@H](O)[C@H](OC)C2)CC(=O)[C@H](C)C=C(C)[C@@H](O)[C@@H](OC)C(=O)[C@H](C)C[C@H](C)/C=C/C=C/C=C1C
- TGI (HL-60(TB) leukemia): 24.2 µM and 144 µM
- TGI (MDA-MB-435): 25.9 µM and 126 µM
- TGI (SN12K1 renal): 20.9 µM
- TGI (SNB-78 CNS): 16.9 µM
- TGI (OVCAR-8 ovarian): 27.7 µM and 62 µM and 243 µM
- TGI (OVCAR-4 ovarian): 6.85 µM and 27 µM
- TGI (SK-MEL-2 melanoma): 17.6 µM and 34.9 µM and 67.2 µM
- GI50 (MDA-N): 79.1 µM
- TGI (K-562 leukemia): 40.5 µM and 365 µM
- TGI (HCC-2998 colon): 13.8 µM and 26.6 µM and 47.9 µM
- TGI (DMS 273 small cell lung): 33.7 µM
- TGI (P388 leukemia): 27.8 µM
- TGI (HS 578T breast): 13.7 µM and 86.4 µM
- TGI (HOP-18 NSCLC): 133 µM
- TGI (KM20L2 colon): 41.5 µM
- TGI (M14 melanoma): 27.2 µM and 144 µM
- TGI (DMS 114 small cell lung): 31.5 µM
- TGI (MDA-MB-231 breast): 26.3 µM and 170 µM
- TGI (SF-539 CNS): 14.6 µM and 22.4 µM and 82.9 µM
- TGI (DLD-1 colon): 25.2 µM
